Test results published in PubChem BioAssay (NCI).
Values joined by “and” are separate entries in the source; they are usually repeats but may differ in a detail not shown here. Equal values may be shown once.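 Values below derive from 48-hour exposures of cells grown in 96-well plates, with endpoints linearly interpolated between the two concentrations bracketing the appropriate inhibition level. Abbreviation: GI50, concentration required for 50% inhibition of growth. Definition used: TGI = concentration required for complete inhibition of growth.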

How the values were obtained:
Experiment in all cases: inhibition of tumour cell growth, NCI panel, 48 h
[1] = system: COLO 205 colon
[2] = system: HCT-116 colon
[3] = system: HOP-62 NSCLC
[4] = system: K-562 leukemia
[5] = system: KM12 colon
[6] = system: LOX IMVI melanoma
[7] = system: MCF7 breast
[8] = system: SF-268 CNS
[9] = system: SK-MEL-28 melanoma
[10] = system: ACHN renal

| Structure (SMILES) | TGI [1] [µM] | TGI [2] [µM] | TGI [3] [µM] | TGI [4] [µM] | TGI [5] [µM] | TGI [6] [µM] | TGI [7] [µM] | TGI [8] [µM] | TGI [9] [µM] | TGI [10] [µM] | GI50 [2] [µM] | GI50 [3] [µM] | GI50 [4] [µM] | GI50 [6] | GI50 [8] [µM] |
| --- | --- | --- | --- | --- | --- | --- | --- | --- | --- | --- | --- | --- | --- | --- | --- |
| CC1=C2C(O)C(C(C)C(=O)NC(C)C)CCC2(C)C=CC1=O (stereo not given) | > 100 | > 100 | > 100 | > 100 | > 100 | > 100 | > 100 | > 100 | > 100 | – | – | – | – | – | – |
| c1ccc2c(c1)C(=Nc1ccc(N=C3c4ccccc4-c4ccccc43)cc1)c1ccccc1-2 | > 100 | > 100 | > 100 | > 100 | > 100 | > 100 | > 100 | > 100 | – | – | – | – | – | – | – |
| CN(C(=O)c1cccs1)C(=S)N1CCN(c2ccccc2)CC1 | > 100 | – | – | > 100 | > 100 | > 100 | > 100 | > 100 | > 100 | > 100 | – | – | – | – | – |
| [N-]=[N+]=NC1=C(c2ccccc2)C(=O)c2cccc3cccc1c23 | > 100 | > 100 | 91.1 | > 100 | > 100 | > 100 | > 100 | > 100 | > 100 | – | – | – | – | – | – |
| CCCCCCCCCCCCP(=O)(O)OCC(N)C(=O)O (stereo not given) | > 100 | 30.3 | 31.6 | > 100 | – | > 100 | > 100 | > 100 | > 100 | > 100 | – | – | – | – | – |
| COC1(C)C=NCC(C)(C)NC(=O)C(C)(OC)C=NCC(C)(C)NC1=O (stereo not given) | > 10 | > 10 | > 10 | > 10 | > 10 | – | > 10 | > 10 | > 10 | > 10 | – | – | – | – | – |
| COc1cccc(-n2c(N)c(-c3nc4cc(C(F)(F)F)ccc4s3)c3ccc([N+](=O)[O-])cc3c2=O)c1 | > 100 | > 100 | > 100 | > 100 | > 100 | – | > 100 | > 100 | > 100 | > 100 | – | – | – | – | – |
| O=C(Nc1c(Cl)cc([N+](=O)[O-])cc1Cl)/C(=N\Nc1cccc(Cl)c1)c1c(O)c2ccccc2oc1=O | > 100 | > 100 | > 100 | > 100 | > 100 | – | – | > 100 | > 100 | > 100 | – | – | – | – | – |
| COc1cc([C@@H]2c3cc4c(c(O)c3C[C@H]3COC(=O)[C@@H]32)OCO4)cc(OC)c1O | 0.174 | > 20 | > 200 | > 50.2 | > 200 | > 200 | > 200 | > 200 | > 200 | – | 0.0039 | 0.00487 | 0.00312 | 0.00394 µM and 0.0367 µM | 0.0043 |
| NC(CCCCNC(=O)C(Cc1ccccc1)NC(=O)OCc1ccccc1)C(=O)NC(CCCCNC(=O)C(Cc1ccccc1)NC(=O)OCc1ccccc1)C(=O)NC(CCCCNC(=O)C(Cc1ccccc1)NC(=O)OCc1ccccc1)C(=O)NC(CCCCNC(=O)C(Cc1ccccc1)NC(=O)OCc1ccccc1)C(=O)NC(CCCCNC(=O)C(Cc1ccccc1)NC(=O)OCc1ccccc1)C(=O)NC(CCCCNC(=O)C(Cc1ccccc1)NC(=O)OCc1ccccc1)C(=O)O (stereo not given) | – | > 100 | > 100 | > 100 | – | > 100 | > 100 | > 100 | > 100 | > 100 | – | – | – | – | – |
| CC(=O)Nc1ccc(-c2nc3ccccc3s2)cc1O | > 100 | > 100 | > 100 | > 100 | 73 | > 100 | – | > 100 | > 100 | > 100 | – | – | – | – | – |
| COc1cc(C=O)c(-c2cc3c(cc2C=O)OCO3)c(OC)c1OC | > 290 | 131 | > 290 | > 290 | 159 | > 290 | – | > 290 | > 290 | > 290 | – | – | – | – | – |
| CCOP(C)(=O)C(Nc1ccc(F)cc1)c1ccc(F)cc1 (stereo not given) | > 100 | > 100 | > 100 | > 100 | > 100 | > 100 | – | > 100 | > 100 | > 100 | – | – | – | – | – |
| N=c1oc2c(Cl)cc(Cl)cc2cc1C(=O)Nc1ccccn1 | > 100 | > 100 | > 100 | > 100 | > 100 | – | > 100 | > 100 | > 100 | 64.4 | – | – | – | – | – |
| Cc1cc(NCCCCCCNc2cc(C)nc3ccc(Cl)cc23)c2cc(Cl)ccc2n1 | 32.3 | 30.8 | > 100 | 18.4 | 30.9 | 28.7 | – | 32.5 | 32 | > 100 | – | – | – | – | – |
| S=C(Nc1ccccc1)N1N=C2c3ccccc3CC[C@H]2[C@@H]1c1ccccc1 | – | > 100 | > 100 | – | > 100 | > 100 | – | > 100 | > 100 | > 100 | – | – | – | – | – |
| CCCCP(CCCC)(CCCC)=C(C(=O)OC)C(C(=O)OC)=C1SC(C(=O)OC)=C(C(=O)OC)S1 | 45.5 | 31.9 | 49.3 | – | – | 28.5 | 30.9 | > 100 | 29.8 | 54.3 | – | – | – | – | – |
| N#CC(c1cc(Cl)ncn1)c1nc2ccccc2s1 (stereo not given) | 57.6 | 22.7 | 43.8 | > 100 | > 100 | 15.8 | – | 18.3 | 42.9 | 68.7 | – | – | – | – | – |
| N#Cc1c2nc3ccccc3nc2n2ccc3ccccc3c12 | > 100 | > 100 | – | > 100 | > 100 | – | – | > 100 | > 100 | > 100 | – | – | – | – | – |
| CC(=O)NC(CCCCNC(=O)N(C)N=O)C(=O)NCc1ccccc1 (stereo not given) | > 100 | > 100 | > 100 | > 100 | > 100 | > 100 | – | > 100 | > 100 | > 100 | – | – | – | – | – |
| Cc1cc(C#N)c(Nc2c(C)cccc2[N+](=O)[O-])s1 | > 100 | > 100 | 75.2 | > 100 | > 100 | – | – | 84.9 | > 100 | > 100 | – | – | – | – | – |
| Cc1cc(-c2ccccc2)cc2[n+]1CC=C2 | > 100 | > 100 | > 100 | – | > 100 | > 100 | – | > 100 | > 100 | > 100 | – | – | – | – | – |
| COc1ccc([C@@H]2CC(=O)NCCCCNCCCN2)cc1 | > 100 | > 100 | > 100 | > 100 | > 100 | – | – | > 100 | > 100 | > 100 | – | – | – | – | – |
